Laboratory results from patent EP0531640B1, “Antibiotic LL-E19020 Gamma” (F. HOFFMANN-LA ROCHE AG, priority 1991, dated 1993).

Test: Growth of chickens and efficiency of feed utilization
Type: in vivo, Peterson X Arbor Acres chicks
Conditions: chicks, 200 ppm in the diet (positive control), day 1 to day 14
Description: In this test, one day old Peterson X Arbor Acres chicks are sorted into equal weight groups of 5 males and 5 females per cage. Cages are randomized to treatment groups with six replicates per treatment. The test compound is evaluated 25 ppm in the diet against chicks receiving a non-medicated diet and a diet containing 200 ppm of penicillin as a positive control.
The cages are weighed at day 1 and at day 14 and feed consumption is measured on weigh days. Feed and water are offered ad libitum and lighting and supplemental heat are provided continuously.
The poultry diet employed in the test is as follows:
The vitamin-amino acid premix in the above feed composition is prepared from the following formulation. The expressions of quantity relate to units per kilogram of the finished feed composition.

Penicillin [reference compound]
Weight Gain: 344 g
Weight Gain, % improvement over control: 7.2%
feed conversion: 1.317
feed conversion, % improvement over control: 0.4%
